{"source": "patent US20120034193A1", "about": "“TREATMENT OF NEUROTROPHIC FACTOR MEDIATED DISORDERS” (priority 2009, published 2012)", "experiment_in_all_cases": "Binding assay", "conditions_in_all_cases": "smilagenin 1 μM", "key": {"[1]": {"target": "5-Hydroxytryptamine, 5-HT5A (Homo sapiens, UniProt P47898)", "experimental": "(§1) The receptor binding was investigated using the following method: Sarsasapogenin was incubated with tissue or cell homogenate that expressed the receptor of interest and a known concentration a radiolabelled compound with affinity for the receptor of interest. After the incubation period the non-bound radiolabelled compound was removed and the amount of specific binding was quantified. The amount of specific binding in the presence and absence of sarsasapogenin were compared and the percent inhibition of the binding of the radiolabelled compound by sarsasapogenin was calculated. The source of the receptor, the incubation conditions, the radiolabelled compound used varied depending on each specific assay.\n(§2) Using the same methods as described above, the binding of smilagenin (1 μM) to the receptors listed in Table 2 below, and the effect of smilagenin on the activity of the enzymes listed in Table 2 below, were investigated."}, "Adrenergic α1A": {"target": "Adrenergic α1A (Rattus norvegicus, UniProt P43140)", "experimental": "as §1, §2"}, "Adrenergic α1D": {"target": "Adrenergic α1D (Homo sapiens, UniProt P25100)", "sequence (P25100 whole entry)": "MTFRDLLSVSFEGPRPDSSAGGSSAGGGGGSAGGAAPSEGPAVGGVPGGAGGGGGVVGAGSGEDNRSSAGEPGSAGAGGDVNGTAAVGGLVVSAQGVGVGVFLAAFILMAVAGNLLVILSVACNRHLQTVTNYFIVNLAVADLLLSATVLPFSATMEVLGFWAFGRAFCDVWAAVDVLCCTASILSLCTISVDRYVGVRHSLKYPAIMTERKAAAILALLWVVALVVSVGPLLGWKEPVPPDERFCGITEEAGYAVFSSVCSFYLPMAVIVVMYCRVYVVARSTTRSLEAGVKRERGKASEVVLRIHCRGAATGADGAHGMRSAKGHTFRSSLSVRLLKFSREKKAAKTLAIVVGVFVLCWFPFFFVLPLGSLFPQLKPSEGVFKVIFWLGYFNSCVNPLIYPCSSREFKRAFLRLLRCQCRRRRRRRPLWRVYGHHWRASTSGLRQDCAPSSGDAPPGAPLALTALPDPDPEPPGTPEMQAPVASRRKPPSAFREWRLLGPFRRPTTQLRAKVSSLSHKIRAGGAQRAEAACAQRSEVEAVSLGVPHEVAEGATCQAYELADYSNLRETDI", "experimental": "as §1, §2"}, "Adrenomedullin AM2": {"target": "Adrenomedullin AM2 (Homo sapiens, UniProt O60896+Q16602)", "sequence (Q16602 23-461)": "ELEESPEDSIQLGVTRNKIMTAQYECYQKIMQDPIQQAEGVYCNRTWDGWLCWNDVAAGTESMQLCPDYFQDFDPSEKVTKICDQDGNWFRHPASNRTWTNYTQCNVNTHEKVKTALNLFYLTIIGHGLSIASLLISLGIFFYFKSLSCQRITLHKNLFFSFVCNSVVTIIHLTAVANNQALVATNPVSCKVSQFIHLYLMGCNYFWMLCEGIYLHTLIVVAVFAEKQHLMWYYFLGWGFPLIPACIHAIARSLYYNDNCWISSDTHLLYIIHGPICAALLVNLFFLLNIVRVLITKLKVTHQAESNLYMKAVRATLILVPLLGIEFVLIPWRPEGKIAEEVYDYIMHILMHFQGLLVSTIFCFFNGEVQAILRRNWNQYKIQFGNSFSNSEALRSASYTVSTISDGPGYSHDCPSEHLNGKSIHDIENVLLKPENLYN", "sequence (O60896 24-148 partner)": "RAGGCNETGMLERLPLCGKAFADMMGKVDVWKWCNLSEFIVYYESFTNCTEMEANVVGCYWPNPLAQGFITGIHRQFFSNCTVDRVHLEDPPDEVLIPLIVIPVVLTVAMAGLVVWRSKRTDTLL", "experimental": "as §1, §2"}, "Bombesin BB2": {"target": "Bombesin BB2 (Homo sapiens, UniProt P30550)", "experimental": "as §1, §2"}, "Bradykinin B2": {"target": "Bradykinin B2 (Homo sapiens, UniProt P30411)", "experimental": "as §1, §2"}, "Cannabinoid CB1": {"target": "Cannabinoid CB1 (Homo sapiens, UniProt P21554)", "sequence (P21554 whole entry)": "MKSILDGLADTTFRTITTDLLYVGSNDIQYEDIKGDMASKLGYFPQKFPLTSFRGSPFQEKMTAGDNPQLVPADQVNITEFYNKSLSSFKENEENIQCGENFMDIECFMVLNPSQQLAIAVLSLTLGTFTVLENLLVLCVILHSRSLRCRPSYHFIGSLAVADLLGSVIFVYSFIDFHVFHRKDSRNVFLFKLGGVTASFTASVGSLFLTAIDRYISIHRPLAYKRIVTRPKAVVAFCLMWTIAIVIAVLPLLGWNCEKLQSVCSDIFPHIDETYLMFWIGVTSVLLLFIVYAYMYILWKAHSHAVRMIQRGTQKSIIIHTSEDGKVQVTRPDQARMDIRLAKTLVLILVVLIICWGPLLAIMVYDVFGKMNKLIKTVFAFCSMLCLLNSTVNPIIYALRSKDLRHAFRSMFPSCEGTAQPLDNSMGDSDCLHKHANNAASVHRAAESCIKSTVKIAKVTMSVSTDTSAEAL", "experimental": "as §1, §2"}, "Chemokine CCR2B": {"target": "Chemokine CCR2B (Homo sapiens, UniProt P41597)", "sequence (P41597 1-360 isoform P41597-2)": "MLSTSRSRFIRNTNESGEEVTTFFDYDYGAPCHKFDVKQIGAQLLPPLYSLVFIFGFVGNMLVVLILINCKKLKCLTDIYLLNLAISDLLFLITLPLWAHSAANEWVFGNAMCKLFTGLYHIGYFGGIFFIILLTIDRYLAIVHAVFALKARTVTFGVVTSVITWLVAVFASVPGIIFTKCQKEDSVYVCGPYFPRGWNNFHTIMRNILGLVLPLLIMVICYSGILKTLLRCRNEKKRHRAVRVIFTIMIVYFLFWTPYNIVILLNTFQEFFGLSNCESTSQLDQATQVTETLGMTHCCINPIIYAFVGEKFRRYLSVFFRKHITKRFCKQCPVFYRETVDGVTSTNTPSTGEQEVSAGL", "experimental": "as §1, §2"}, "Chemokine CCR4": {"target": "Chemokine CCR4 (Homo sapiens, UniProt P51679)", "experimental": "as §1, §2"}, "Chemokine CCR5": {"target": "Chemokine CCR5 (Homo sapiens, UniProt P51681)", "experimental": "as §1, §2"}, "[2]": {"target": "Corticotropin Releasing Factor (CRF1) (Homo sapiens, UniProt P34998)", "experimental": "as §1, §2"}, "Dopamine D1": {"target": "T1, Dopamine D1 (Homo sapiens, UniProt P21728)", "T1 construct": "host or cells: tissue or cell homogenate, not specified", "experimental": "as §1, §2"}, "Erythropoietin EPOR": {"target": "T2, Erythropoietin EPOR (Homo sapiens, UniProt P19235)", "T2 construct": "host or cells: tissue or cell homogenate (not specified)", "experimental": "as §1, §2"}, "GABAB1B": {"target": "T3, GABAB1B (Homo sapiens, UniProt Q9UBS5)", "T3 construct": "host or cells: tissue or cell homogenate (not specified)", "experimental": "as §1, §2"}, "Galanin GAL1": {"target": "T4, Galanin GAL1 (Homo sapiens, UniProt P47211)", "T4 construct": "host or cells: tissue or cell homogenate (not specified)", "experimental": "as §1, §2"}, "Galanin GAL2": {"target": "T5, Galanin GAL2 (Homo sapiens, UniProt O43603)", "T5 construct": "host or cells: tissue or cell homogenate (not specified)", "experimental": "as §1, §2"}, "Glutamate, NMDA, Glycine": {"target": "T6, Glutamate, NMDA, Glycine (Rattus norvegicus, UniProt P35439)", "T6 construct": "host or cells: tissue or cell homogenate (not specified)", "experimental": "as §1, §2"}, "[3]": {"target": "T7, Growth Hormone Secretagogue (GHS, Ghrelin) (Homo sapiens, UniProt Q92847)", "T7 construct": "host or cells: tissue or cell homogenate (not specified)", "T7 sequence (Q92847 whole entry)": "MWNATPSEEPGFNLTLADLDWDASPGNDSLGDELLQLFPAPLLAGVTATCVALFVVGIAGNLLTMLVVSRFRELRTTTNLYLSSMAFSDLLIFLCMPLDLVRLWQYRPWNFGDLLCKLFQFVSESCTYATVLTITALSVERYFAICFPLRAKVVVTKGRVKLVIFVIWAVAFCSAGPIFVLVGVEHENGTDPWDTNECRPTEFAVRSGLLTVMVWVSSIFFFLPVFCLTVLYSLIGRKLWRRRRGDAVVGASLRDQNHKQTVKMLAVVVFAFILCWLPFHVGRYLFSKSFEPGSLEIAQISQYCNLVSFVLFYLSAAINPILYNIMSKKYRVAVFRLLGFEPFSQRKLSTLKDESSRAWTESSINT", "experimental": "as §1, §2"}, "Histamine H3": {"target": "T8, Histamine H3 (Homo sapiens, UniProt Q9Y5N1)", "T8 construct": "host or cells: tissue or cell homogenate (not specified)", "experimental": "as §1, §2"}, "Interleukin IL-1": {"target": "Interleukin IL-1 (Mus musculus, UniProt P13504)", "experimental": "as §1, §2"}, "Interleukin IL-6": {"target": "Interleukin IL-6 (Homo sapiens, UniProt P08887)", "sequence (P08887 20-468)": "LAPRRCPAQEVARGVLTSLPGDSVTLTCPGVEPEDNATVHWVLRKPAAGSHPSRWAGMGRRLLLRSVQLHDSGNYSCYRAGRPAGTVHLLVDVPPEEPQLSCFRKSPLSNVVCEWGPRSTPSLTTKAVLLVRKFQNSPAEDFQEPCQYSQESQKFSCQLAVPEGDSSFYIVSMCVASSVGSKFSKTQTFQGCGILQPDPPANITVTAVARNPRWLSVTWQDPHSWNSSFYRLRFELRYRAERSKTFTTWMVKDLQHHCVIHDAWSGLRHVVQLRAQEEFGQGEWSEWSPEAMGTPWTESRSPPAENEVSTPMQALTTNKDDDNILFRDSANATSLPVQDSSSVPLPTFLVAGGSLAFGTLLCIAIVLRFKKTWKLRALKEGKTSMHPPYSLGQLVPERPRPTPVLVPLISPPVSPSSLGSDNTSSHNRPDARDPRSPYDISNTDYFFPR", "experimental": "as §1, §2"}, "Leukotriene, BLT (LTB4)": {"target": "Leukotriene, BLT (LTB4) (Homo sapiens, UniProt Q15722)", "sequence (Q15722 whole entry)": "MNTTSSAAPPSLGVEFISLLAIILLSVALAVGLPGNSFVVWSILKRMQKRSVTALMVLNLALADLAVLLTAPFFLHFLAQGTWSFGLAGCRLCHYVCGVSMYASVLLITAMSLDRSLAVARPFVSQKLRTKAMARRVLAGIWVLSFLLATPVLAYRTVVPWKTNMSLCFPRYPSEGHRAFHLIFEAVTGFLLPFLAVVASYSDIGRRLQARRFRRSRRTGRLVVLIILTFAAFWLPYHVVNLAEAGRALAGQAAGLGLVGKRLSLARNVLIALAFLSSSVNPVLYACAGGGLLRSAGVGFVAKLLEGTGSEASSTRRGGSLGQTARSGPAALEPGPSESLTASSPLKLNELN", "experimental": "as §1, §2"}, "[4]": {"target": "Leukotriene, Cysteinyl CysLT1 (Homo sapiens, UniProt Q9Y271)", "sequence (Q9Y271 whole entry)": "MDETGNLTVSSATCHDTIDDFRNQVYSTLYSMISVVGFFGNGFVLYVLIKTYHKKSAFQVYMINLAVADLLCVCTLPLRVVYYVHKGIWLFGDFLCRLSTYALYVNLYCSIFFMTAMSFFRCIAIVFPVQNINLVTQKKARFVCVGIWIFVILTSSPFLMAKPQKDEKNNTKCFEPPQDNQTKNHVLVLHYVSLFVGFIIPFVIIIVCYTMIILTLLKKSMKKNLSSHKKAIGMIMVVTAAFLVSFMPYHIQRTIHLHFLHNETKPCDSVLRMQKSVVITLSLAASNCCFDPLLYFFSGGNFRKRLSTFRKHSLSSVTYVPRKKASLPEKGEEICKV", "experimental": "as §1, §2"}, "Melanocortin MC1": {"target": "Melanocortin MC1 (Homo sapiens, UniProt Q01726)", "experimental": "as §1, §2"}, "Melatonin MT2": {"target": "Melatonin MT2 (Homo sapiens, UniProt P49286)", "experimental": "as §1, §2"}, "Muscarinic M3": {"target": "T9, Muscarinic M3 (Homo sapiens, UniProt P20309)", "T9 construct": "host or cells: tissue or cell homogenate, not specified", "experimental": "as §1, §2"}, "[5]": {"target": "N-Formyl Peptide Receptor FPR1 (Homo sapiens, UniProt P21462)", "sequence (P21462 whole entry)": "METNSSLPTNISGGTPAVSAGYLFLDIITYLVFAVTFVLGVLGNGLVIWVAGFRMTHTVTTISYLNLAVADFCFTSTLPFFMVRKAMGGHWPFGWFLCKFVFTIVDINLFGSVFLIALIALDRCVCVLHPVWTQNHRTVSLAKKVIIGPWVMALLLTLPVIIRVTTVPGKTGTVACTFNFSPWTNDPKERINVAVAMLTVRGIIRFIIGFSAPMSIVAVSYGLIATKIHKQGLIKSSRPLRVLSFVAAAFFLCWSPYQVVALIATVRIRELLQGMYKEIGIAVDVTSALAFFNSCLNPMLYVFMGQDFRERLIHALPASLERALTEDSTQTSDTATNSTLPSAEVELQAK", "experimental": "as §1, §2"}, "Neuromedin U MNU2": {"target": "Neuromedin U MNU2 (Homo sapiens, UniProt Q9GZQ4)", "experimental": "as §1, §2"}, "Opiate κ (OP2, KOP)": {"target": "Opiate κ (OP2, KOP) (Homo sapiens, UniProt P41145)", "experimental": "as §1, §2"}, "Opiate μ (OP3, MOP)": {"target": "Opiate μ (OP3, MOP) (Homo sapiens, UniProt P35372)", "experimental": "as §1, §2"}, "[6]": {"target": "Platelet Activating Factor (PAF) (Homo sapiens, UniProt P25105)", "sequence (P25105 whole entry)": "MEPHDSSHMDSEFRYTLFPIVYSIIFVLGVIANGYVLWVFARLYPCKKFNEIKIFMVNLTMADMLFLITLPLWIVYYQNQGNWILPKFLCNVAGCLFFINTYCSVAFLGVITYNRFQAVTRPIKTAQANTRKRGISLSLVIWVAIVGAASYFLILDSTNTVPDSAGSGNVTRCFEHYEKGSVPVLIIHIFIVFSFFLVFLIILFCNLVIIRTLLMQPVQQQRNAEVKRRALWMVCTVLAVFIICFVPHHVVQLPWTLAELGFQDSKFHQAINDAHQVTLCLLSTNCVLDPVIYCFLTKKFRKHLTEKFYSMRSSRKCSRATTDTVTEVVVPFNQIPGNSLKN", "experimental": "as §1, §2"}, "[7]": {"target": "Prostanoid Thromboxane A2 (TP) (Homo sapiens, UniProt P21731)", "sequence (P21731 whole entry)": "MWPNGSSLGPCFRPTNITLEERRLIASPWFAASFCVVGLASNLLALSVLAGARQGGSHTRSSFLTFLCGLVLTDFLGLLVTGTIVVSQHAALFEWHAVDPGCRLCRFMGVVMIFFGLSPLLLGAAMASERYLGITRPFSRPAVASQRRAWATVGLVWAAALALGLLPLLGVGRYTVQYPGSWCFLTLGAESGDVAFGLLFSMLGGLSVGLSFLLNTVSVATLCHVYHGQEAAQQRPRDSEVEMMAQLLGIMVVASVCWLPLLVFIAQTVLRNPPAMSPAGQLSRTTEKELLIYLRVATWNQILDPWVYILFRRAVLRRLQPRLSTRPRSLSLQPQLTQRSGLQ", "experimental": "as §1, §2"}, "Sigma σ1": {"target": "Sigma σ1 (Homo sapiens, UniProt Q99720)", "experimental": "as §1, §2"}, "Somatostatin sstl": {"target": "Somatostatin sstl (Homo sapiens, UniProt P30872)", "experimental": "as §1, §2"}, "Tachykinin NK1": {"target": "Tachykinin NK1 (Homo sapiens, UniProt P25103)", "sequence (P25103 whole entry)": "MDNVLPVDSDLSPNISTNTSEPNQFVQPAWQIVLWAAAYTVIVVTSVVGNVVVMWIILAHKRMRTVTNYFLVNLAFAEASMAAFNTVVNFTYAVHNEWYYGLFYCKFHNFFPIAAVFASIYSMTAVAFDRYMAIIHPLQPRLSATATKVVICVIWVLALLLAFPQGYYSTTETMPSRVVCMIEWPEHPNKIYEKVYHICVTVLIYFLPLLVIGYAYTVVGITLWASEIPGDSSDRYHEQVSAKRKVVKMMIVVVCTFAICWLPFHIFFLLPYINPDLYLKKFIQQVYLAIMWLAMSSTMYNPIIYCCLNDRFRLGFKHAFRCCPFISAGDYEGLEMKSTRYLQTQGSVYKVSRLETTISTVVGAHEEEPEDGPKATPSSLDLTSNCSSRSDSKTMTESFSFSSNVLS", "experimental": "as §1, §2"}, "Vanilloid": {"target": "T10, Vanilloid (Rattus norvegicus, UniProt O35433)", "T10 construct": "host or cells: tissue or cell homogenate, not specified", "experimental": "as §1, §2"}}, "data": [{"smiles": "C[C@@H]1CC[C@@]2(OC1)O[C@H]1C[C@H]3[C@@H]4CC[C@@H]5C[C@@H](O)CC[C@]5(C)[C@H]4CC[C@]3(C)[C@H]1[C@@H]2C", "note": "[Smilagenin, smilagenin]", "values": [{"measurement": "Effect (%)", "setting": "[1]", "result": "NS (NS = No significant response. Significance was taken as ≧30% stimulation or inhibition)"}, {"measurement": "Effect (%)", "setting": "Adrenergic α1A", "result": "NS (NS = No significant response. Significance was taken as ≧30% stimulation or inhibition)"}, {"measurement": "Effect (%)", "setting": "Adrenergic α1D", "result": "NS (NS = No significant response. Significance was taken as ≧30% stimulation or inhibition)"}, {"measurement": "Effect (%)", "setting": "Adrenomedullin AM2", "result": "NS (NS = No significant response. Significance was taken as ≧30% stimulation or inhibition)"}, {"measurement": "Effect (%)", "setting": "Bombesin BB2", "result": "NS (NS = No significant response. Significance was taken as ≧30% stimulation or inhibition)"}, {"measurement": "Effect (%)", "setting": "Bradykinin B2", "result": "NS (NS = No significant response. Significance was taken as ≧30% stimulation or inhibition)"}, {"measurement": "Effect (%)", "setting": "Cannabinoid CB1", "result": "NS (NS = No significant response. Significance was taken as ≧30% stimulation or inhibition)"}, {"measurement": "Effect (%)", "setting": "Chemokine CCR2B", "result": "NS (NS = No significant response. Significance was taken as ≧30% stimulation or inhibition)"}, {"measurement": "Effect (%)", "setting": "Chemokine CCR4", "result": "NS (NS = No significant response. Significance was taken as ≧30% stimulation or inhibition)"}, {"measurement": "Effect (%)", "setting": "Chemokine CCR5", "result": "NS (NS = No significant response. Significance was taken as ≧30% stimulation or inhibition)"}, {"measurement": "Effect (%)", "setting": "[2]", "result": "NS (NS = No significant response. Significance was taken as ≧30% stimulation or inhibition)"}, {"measurement": "Effect (%)", "setting": "Dopamine D1", "result": "NS (NS = No significant response. Significance was taken as ≧30% stimulation or inhibition)"}, {"measurement": "Effect (%)", "setting": "Erythropoietin EPOR", "result": "NS (NS = No significant response. Significance was taken as ≧30% stimulation or inhibition)"}, {"measurement": "Effect (%)", "setting": "GABAB1B", "result": "NS (NS = No significant response. Significance was taken as ≧30% stimulation or inhibition)"}, {"measurement": "Effect (%)", "setting": "Galanin GAL1", "result": "NS (NS = No significant response. Significance was taken as ≧30% stimulation or inhibition)"}, {"measurement": "Effect (%)", "setting": "Galanin GAL2", "result": "NS (NS = No significant response. Significance was taken as ≧30% stimulation or inhibition)"}, {"measurement": "Effect (%)", "setting": "Glutamate, NMDA, Glycine", "result": "NS (NS = No significant response. Significance was taken as ≧30% stimulation or inhibition)"}, {"measurement": "Effect (%)", "setting": "[3]", "result": "NS (NS = No significant response. Significance was taken as ≧30% stimulation or inhibition)"}, {"measurement": "Effect (%)", "setting": "Histamine H3", "result": "NS (NS = No significant response. Significance was taken as ≧30% stimulation or inhibition)"}, {"measurement": "Effect (%)", "setting": "Interleukin IL-1", "result": "NS (NS = No significant response. Significance was taken as ≧30% stimulation or inhibition)"}, {"measurement": "Effect (%)", "setting": "Interleukin IL-6", "result": "NS (NS = No significant response. Significance was taken as ≧30% stimulation or inhibition)"}, {"measurement": "Effect (%)", "setting": "Leukotriene, BLT (LTB4)", "result": "NS (NS = No significant response. Significance was taken as ≧30% stimulation or inhibition)"}, {"measurement": "Effect (%)", "setting": "[4]", "result": "NS (NS = No significant response. Significance was taken as ≧30% stimulation or inhibition)"}, {"measurement": "Effect (%)", "setting": "Melanocortin MC1", "result": "NS (NS = No significant response. Significance was taken as ≧30% stimulation or inhibition)"}, {"measurement": "Effect (%)", "setting": "Melatonin MT2", "result": "NS (NS = No significant response. Significance was taken as ≧30% stimulation or inhibition)"}, {"measurement": "Effect (%)", "setting": "Muscarinic M3", "result": "NS (NS = No significant response. Significance was taken as ≧30% stimulation or inhibition)"}, {"measurement": "Effect (%)", "setting": "[5]", "result": "NS (NS = No significant response. Significance was taken as ≧30% stimulation or inhibition)"}, {"measurement": "Effect (%)", "setting": "Neuromedin U MNU2", "result": "NS (NS = No significant response. Significance was taken as ≧30% stimulation or inhibition)"}, {"measurement": "Effect (%)", "setting": "Opiate κ (OP2, KOP)", "result": "NS (NS = No significant response. Significance was taken as ≧30% stimulation or inhibition)"}, {"measurement": "Effect (%)", "setting": "Opiate μ (OP3, MOP)", "result": "NS (NS = No significant response. Significance was taken as ≧30% stimulation or inhibition)"}, {"measurement": "Effect (%)", "setting": "[6]", "result": "NS (NS = No significant response. Significance was taken as ≧30% stimulation or inhibition)"}, {"measurement": "Effect (%)", "setting": "[7]", "result": "NS (NS = No significant response. Significance was taken as ≧30% stimulation or inhibition)"}, {"measurement": "Effect (%)", "setting": "Sigma σ1", "result": "NS (NS = No significant response. Significance was taken as ≧30% stimulation or inhibition)"}, {"measurement": "Effect (%)", "setting": "Somatostatin sstl", "result": "NS (NS = No significant response. Significance was taken as ≧30% stimulation or inhibition)"}, {"measurement": "Effect (%)", "setting": "Tachykinin NK1", "result": "NS (NS = No significant response. Significance was taken as ≧30% stimulation or inhibition)"}, {"measurement": "Effect (%)", "setting": "Vanilloid", "result": "NS (NS = No significant response. Significance was taken as ≧30% stimulation or inhibition)"}]}]}
